These results are taken from ChEMBL document CHEMBL3763070, “Development of CINPA1 analogs as novel and potent inverse agonists of constitutive androstane receptor” (Eur J Med Chem, 2016).

The test concerns the target T1, Nuclear receptor subfamily 1 group I member 3 (Homo sapiens, UniProt Q14994).
T1 sequence (Q14994 whole entry): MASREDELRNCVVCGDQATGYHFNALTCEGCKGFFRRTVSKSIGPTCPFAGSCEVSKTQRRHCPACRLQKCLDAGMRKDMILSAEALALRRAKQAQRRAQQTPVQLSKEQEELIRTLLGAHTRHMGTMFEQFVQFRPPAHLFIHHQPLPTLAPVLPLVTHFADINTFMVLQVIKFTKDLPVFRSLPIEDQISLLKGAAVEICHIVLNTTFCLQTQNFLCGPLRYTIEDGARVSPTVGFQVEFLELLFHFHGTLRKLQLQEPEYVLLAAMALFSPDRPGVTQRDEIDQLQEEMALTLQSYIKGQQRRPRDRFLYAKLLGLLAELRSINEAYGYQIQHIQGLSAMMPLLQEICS
In words: Inverse agonist activity at GST tagged-human CAR-LBD assessed as reduction in fluorescein-PGC1 alpha coactivator recruitment after 1 hr by TR-FRET assay.
Regarding `CCN(CC)CC(=O)N1c2ccccc2CCc2ccc(NC(=O)OC(C)C)cc21`, the IC50 was 680 nM.
For `CCN(CC)CC(=O)N1c2ccccc2CCc2ccc(NC(=O)OC(C)(C)C)cc21`, the IC50 stood at 1030 nM.
For `O=C(Nc1ccc2c(c1)N(C(=O)Cn1cccc1)c1ccccc1CC2)OC1CCCCC1`, the concentration for half-maximal inhibition (IC50) was 11.7 nM.
For the molecule `CCCN(CCC)CC(=O)N1c2ccccc2CCc2ccc(NC(=O)OC(C)C)cc21`, the IC50 is 116 nM.
As to `CC(C)OCC(=O)N1c2ccccc2CCc2ccc(NC(=O)OC(C)(C)C)cc21`, the IC50 was determined as 116 nM.
As to `CCOC(=O)Nc1ccc2c(c1)N(C(=O)CN)c1ccccc1CC2`, the IC50 was > 70000 nM.
As to `CC(C)(C)OC(=O)Nc1ccc2c(c1)N(C(=O)Cn1cccc1)c1ccccc1CC2`, the half-maximal inhibitory concentration (IC50) worked out at 31.9 nM.
In the case of `CC(C)OC(=O)Nc1ccc2c(c1)N(C(=O)COC1CCCC1)c1ccccc1CC2` it was 19.5 nM; in that of `CC(C)(C)OC(=O)Nc1ccc2c(c1)N(C(=O)CN1CCCCC1)c1ccccc1CC2`, 216 nM.

For orientation: IC50 means the point on the concentration scale where inhibition reaches its midpoint.
